“Also recorded” adds a separate entry of the source.
Legend:
[1] = system: serotonin and 5-HIAA in rat brain; experiment: animal or person; format: in vivo, rat (Wistar); settings: sc, subcutaneous, 1 h after injection, p<0.05 vs control, read-out: Minimum effective dose suppressing 5-HIAA
Method: Male Wistar rate (HSD/[WI]BR) weighing about 150 g were kept in a temperature-controlled (24° C.) and light-controlled room (lights on from 7:00 A.M. to 7:00 P.M.) with food and water freely available. The compounds to be tested were dissolved in dilute hydrochloric acid and injected subcutaneously. Five rats per group were used in each experiment. The rats were decapitated one hour after injection and the brains were excised quickly, frozen on dry ice and stored at -15° C. before analysis. […] Neurosci. Abstr. […] Serum corticosterone levels were determined spectrofluorometrically by the method of Solem et al., Scand. J. Clin. Lab. Invest. […] 80, 1.

[2] = system: serum corticosterone; experiment: corticosterone concentrations in the serum of rats; format: in vivo, rat (Wistar); settings: sc; subcutaneous; rat, 1 h after injection; p<0.05 vs control; read-out: Minimum effective dose increasing serum corticosterone
Method: (§1) Male Wistar rate (HSD/[WI]BR) weighing about 150 g were kept in a temperature-controlled (24° C.) and light-controlled room (lights on from 7:00 A.M. to 7:00 P.M.) with food and water freely available. The compounds to be tested were dissolved in dilute hydrochloric acid and injected subcutaneously. Five rats per group were used in each experiment. The rats were decapitated one hour after injection and the brains were excised quickly, frozen on dry ice and stored at -15° C. before analysis. […] See Fuller et al., Biochem. Pharmacol. 1977, 26, 2087 and Perry et al., Soc. Neurosci. Abstr. 1979, 5, 348. Serum corticosterone levels were determined spectrofluorometrically by the method of Solem et al., Scand. J. Clin. Lab. Invest. 1965, 17, suppl. 80, 1.
The minimum effective doses of these same compounds which produced a statistically significant decrease in 5-HIAA concentration and a statistically significant increase in serum corticosterone concentration are shown in Table II. The minimum effective dose is the lowest dose producing significant differences from a control group (p<0.05).

[3] = target: T1, 5-HT2 receptor (Rattus norvegicus, UniProt P14842); experiment: binding to 5-HT2 sites ([3H]spiperone displacement, rat brain frontal cortex); design: species or system rat (Wistar)
T1 construct: Rat brain frontal cortex from male Wistar rats; from tissue; host or cells: rat brain frontal cortex (male Wistar), membrane pellet
Method: The pellet from the frontal cortex homogenates was suspended in 0.05 molar (M) Tris buffer containing 10 micromolar (μM) pargyline and 4 millimolar (mM) Ca^++ to give a final protein concentration of 250-350 microgram (μg) per sample. […] All radioactive ligands were obtained from New England Nuclear, Boston, Mass., USA. Specific binding was determined as the difference between total binding and nonspecific binding. Eleven concentrations of each of the compounds tested were used between 0.1 and 10,000 nM. All samples were run in duplicate.

[4] = target: 5-HT1 receptor; experiment: binding to 5-HT1 sites ([3H]serotonin displacement, rat brain frontal cortex); design: species or system rat (Wistar); settings: for IC50: 2 nM [3H]serotonin, rat frontal cortex; for Selectivity Ratio: IC50 5HT2 / IC50 5HT1, values greater than 1 indicate selectivity for the 5HT1 receptor
Method: All radioactive ligands were obtained from New England Nuclear, Boston, Mass., USA. Specific binding was determined as the difference between total binding and nonspecific binding. Eleven concentrations of each of the compounds tested were used between 0.1 and 10,000 nM. All samples were run in duplicate.

[5] = system: 5-hydroxytryptophan in rat hypothalamus; experiment: accumulation of 5-hydroxytryptophan in rat hypothalamus (NSD-1015 treated rats); format: in vivo, rat (Wistar); settings: for 5-Hydroxytryptophan Concentration in Hypothalamus: NSD-1015 100 mg/kg i.p., mean ± SE, n=5, control 1.92 ± 0.07, significant decrease p<0.01
Method: as §1
The protocol previously described for neurochemical determinations was repeated with the following modification. To each of the five rats in the treatment group was administered the amino acid decarboxylase inhibitor m-hydroxybenzylhydrazine (also known as NSD-1015). See Euvard et al., Eur. J. Pharmacol. 1980, 63, 65 and Hamon et al., Arch. Pharmacol. 1976, 294, 99. The NSD-1015 was administered at a dose of 100 mg/kg (intraperitoneal) 30 minutes before decapitation and 30 minutes after the dose of the test compound of Example 1 was given.

T1 sequence (P14842 whole entry): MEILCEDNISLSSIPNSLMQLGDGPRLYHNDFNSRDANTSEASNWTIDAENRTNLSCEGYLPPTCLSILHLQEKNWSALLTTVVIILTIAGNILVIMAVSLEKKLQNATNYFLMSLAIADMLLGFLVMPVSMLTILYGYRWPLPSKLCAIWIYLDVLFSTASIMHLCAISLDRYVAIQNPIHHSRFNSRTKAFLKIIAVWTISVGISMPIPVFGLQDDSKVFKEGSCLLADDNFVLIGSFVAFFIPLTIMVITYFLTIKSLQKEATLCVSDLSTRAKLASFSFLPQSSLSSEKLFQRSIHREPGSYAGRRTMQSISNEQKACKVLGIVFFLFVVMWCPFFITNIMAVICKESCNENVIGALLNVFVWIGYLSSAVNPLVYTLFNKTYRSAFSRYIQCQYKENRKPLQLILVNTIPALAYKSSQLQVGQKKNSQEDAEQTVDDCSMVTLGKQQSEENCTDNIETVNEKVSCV

SMILES: CSC[C@@H]1C=C2c3cccc4c3[C@@H](CN4)C[C@H]2N(C)C1 [Example 5, (3β,5β,8β)-9,10-Didehydro-2,3-dihydro-6-methyl-8-(methylthiomethyl) ergoline]
- minimal effective dose [1]: 0.1 mg/kg
- minimal effective dose [2]: 1 mg/kg
- IC50 [3]: 1330 nM
- IC50 [4]: 20 nM
- Selectivity Ratio [4]: 66

SMILES: CN1C[C@H](CSc2ccccc2)C=C2c3cccc4c3[C@@H](CN4)C[C@H]21 [Example 7, (3β,5β,8β)-9,10-Didehydro-2,3-dihydro-6-methyl-8-(phenylthiomethyl) ergoline]
- IC50 [3]: 210 nM
- IC50 [4]: 8 nM
- Selectivity Ratio [4]: 26

SMILES: C=C1C=C2c3cccc4c3[C@@H](CN4)C[C@H]2N(C)C1 [Example 4, (3β)-2,3-Dihydrolysergene]
- IC50 [3]: 3820 nM
- IC50 [4]: 80 nM
- Selectivity Ratio [4]: 48

SMILES: C[C@@H]1C=C2c3cccc4c3[C@@H](CN4)C[C@H]2N(C)C1 [Example 1, (3β)-2,3-Dihydrolysergine]
- minimal effective dose [1]: 0.03 mg/kg
- minimal effective dose [2]: 0.1 mg/kg
- 5-Hydroxytryptophan Concentration in Hypothalamus ([5]; 0.01 mg/kg subcutaneous): 1.64 ± 0.07 nanomoles per gram
- 5-Hydroxytryptophan Concentration in Hypothalamus ([5]; 0.03 mg/kg subcutaneous): 1.19 ± 0.05 nanomoles per gram
- 5-Hydroxytryptophan Concentration in Hypothalamus ([5]; 0.1 mg/kg subcutaneous): 0.73 ± 0.02 nanomoles per gram
- 5-Hydroxytryptophan Concentration in Hypothalamus ([5]; 0.3 mg/kg subcutaneous): 0.71 ± 0.02 nanomoles per gram
- 5-hydroxytryptophan accumulation in the hypothalamus (in words) ([5]; NSD-1015 treated rats, 0.01-0.3 mg/kg subcutaneous): dose related decrease in 5-hydroxytryptophan accumulation; also recorded: Significant effects were detected at all of the doses used
- dose of maximal reduction of serotonin turnover ([5]; NSD-1015 treated rats, subcutaneous): 0.1 mg/kg
- IC50 [3]: 1660 nM
- IC50 [4]: 17 nM

SMILES: C[C@H]1C=C2c3cccc4c3[C@@H](CN4)C[C@H]2N(C)C1 [Example 2, (3β)-2,3-Dihydroisolysergine]
- minimal effective dose [1]: 0.001 mg/kg
- minimal effective dose [2]: 0.003 mg/kg
- IC50 [3]: > 1000 nM
- IC50 [4]: 20 nM
- Selectivity Ratio [4]: at least 100

SMILES: CCCN1C[C@H](C)C=C2c3cccc4c3[C@@H](CN4)C[C@H]21 [Example 10, (3β,5β,8β)-9,10-Didehydro-2,3-dihydro-8-methyl-6-propylergoline]
- IC50 [3]: > 1000 nM
- IC50 [4]: 240 nM

SMILES: NCCc1c[nH]c2ccc(O)cc12 [serotonin, 5-hydroxytryptamine, reference compound]
- IC50 [4]: 4 nM

SMILES: COC(=O)[C@@H]1C=C2c3cccc4c3[C@@H](CN4)C[C@H]2N(C)C1 [Example 9, (3β)-2,3-Dihydro-methyllysergate]
- IC50 [3]: 1620 nM
- IC50 [4]: 40 nM
- Selectivity Ratio [4]: 40

SMILES: CN1C[C@H](CC#N)C=C2c3cccc4c3[C@@H](CN4)C[C@H]21 [Example 6, (3β,5β,8β)-9,10-Didehydro-2,3-dihydro-6-methylergoline-8-acetonitrile]
- minimal effective dose [1]: 0.1 mg/kg
- minimal effective dose [2]: 0.1 mg/kg
- IC50 [3]: 2120 nM
- IC50 [4]: 20 nM

SMILES: CN1C[C@H](CSc2ccccn2)C=C2c3cccc4c3[C@@H](CN4)C[C@H]21 [Example 8, (3β,5β,8β)-9,10-Didehydro-2,3-dihydro-6-methyl-8-(2-pyridylthiomethyl)ergoline]
- IC50 [3]: 110 nM
- IC50 [4]: 3 nM
- Selectivity Ratio [4]: 28

SMILES: CN1C[C@H](CO)C=C2c3cccc4c3[C@@H](CN4)C[C@H]21 [Example 3, (3β)-2,3-Dihydrolysergol]
- minimal effective dose [1]: 1 mg/kg
- minimal effective dose [2]: 0.1 mg/kg
- IC50 [3]: 2650 nM
- IC50 [4]: 26 nM
